Values of other authors, collected in patent US20180221406A1, “THERAPEUTIC COMBINATIONS OF ANTIVIRAL AND ANTI-INFLAMMATORY THERAPIES” (Foresight Biotherapeutics, Inc., priority 2015, published 2018).

Tests used:
[1] = tested on: respiratory syncytial virus (RSV); details: in vivo
[2] = tested on: acute rhinosinusitis principally of viral origin; details: in vivo

SMILES	Efficacy in bronchiolitis caused by RSV [1]	Efficacy in uncomplicated acute rhinosinusitis [2]
C[C@@H]1C[C@H]2[C@@H]3CCC4=CC(=O)C=C[C@]4(C)[C@@]3(F)[C@@H](O)C[C@]2(C)[C@@]1(O)C(=O)CO [dexamethasone, (8S,9R,10S,11S,13S,14S,16R,17R)-9-fluoro-11,17-dihydroxy-17-(2-hydroxyacetyl)-10,13,16-trimethyl-6,7,8,11,12,14,15,16-octahydrocyclopenta[a]phenanthren-3-one]	ineffective	
C[C@]12C=CC(=O)C=C1CC[C@@H]1[C@@H]2[C@@H](O)C[C@@]2(C)[C@H]1CC[C@]2(O)C(=O)CO [prednisolone]		ineffective
